Patent US10925890B2, “Use of dextran sulfate” (TX MEDIC AB, priority 2014, dated 2021)
Entries after “also recorded” stand apart in the source; their conditions may differ.

What was measured:
[1] = system: rat model of myocardial infarction; assay: SMA vascular density count, rat myocardial infarction model; format: in vivo; settings: group 2M, 15 mg/kg 3 times/week for 3 weeks; 35 days after MI induction; infarct region
Method: On the day of surgery the animals were anesthetized with a combination of 90 mg/kg ketamine and 10 mg/kg xylazine. In order to induce MI, under anesthesia and analgesia, the rat chest was opened by left thoracotomy, the pericardium was removed and the proximal left coronary artery was permanently occluyded with an intramural stitch (Circulation 117, 1388-1396 (2008)). Two hours post surgery, each animal in all treated groups were injected s.c. with dextran sulfate or saline vehicle according to Table 11.
For the purpose of MI size identification, Masson's Trichrome Staining was used. Nine hearts of a treated (2M) group and eight of the untreated (1M) group were sectioned transversely into five sections that were imbedded in paraffin. Five paraffin sections at 5 μm were performed on a Lika microtome. All sections were stained according to standard Masson's trichrome protocol. The sections were visualized in a computer-imaging system and infarct size was marked and calculated using the ImageJ program. Infarct size was expressed as percentage of infarct area (unstained) versus the total left ventricle area. For each animal, five serial sections including one containing the ligature were analyzed and the mean value of all sections for each heart was calculated. Immunohistobchemistry marker (Smooth Muscle Actin—SMA) was used for evaluating the vascular density count. […]

[2] = system: Rat Hind-Limb Ischemia Model; assay: Blood flow by non-contact LASER Doppler, rat hind-limb ischemia; format: in vivo; settings: for Mean change in blood flow from Day 0 to Day 28: vehicle 14.8
Method: The femoral artery and vein were ligated twice with 4-0 silk thread and transected between the ligatures. The wound was closed with 3-0 silk thread and the rats were allowed to recover.
Animals in group 4M and 5M were injected s.c. once on Day 8, see Table 12.
Blood flows in legs from both sides were measured with a non-contact LASER Doppler before surgery on Day −1 and on Days: 1, 7, 14, 21 and 28 post operation. Blood flow measurements were expressed as the ratio of the flow in the ischemic limb to that in the normal limb.

tMCAO rat-stroke model [3] = assay: Forelimb placing test, tMCAO rat; format: in vivo
Method: (§1) Transient middle cerebral artery occlusion was performed according to the method previously described in Stroke 29, 2162-2170 (1998). The right common carotid artery (CCA) was exposed through a midline neck incision and carefully dissected free from surrounding nerves and fascia—from its bifurcation to the base of the skull. The occipital artery branches of the external carotid artery (ECA) were then isolated, and these branches were dissected and coagulated. The ECA was dissected further distally and coagulated along with the terminal lingual and maxillary artery branches, which was then divided. The internal carotid artery (ICA) was isolated and carefully separated from the adjacent vagus nerve, and the pterygopalatine artery was ligated close to its origin with a 5-0 nylon suture (SMI, Belgium). Next a 4-0 silk suture was tied loosely around the mobilized ECA stump, and a 4 cm length of 4-0 monofilament nylon suture (the tip of the suture was blunted by using a flame, and the suture was coated with polylysine, prior to insertion) was inserted through the proximal ECA into the ICA and thence into the circle of Willis, effectively occluding the MCA. […]
For each subtest, animals were scored as followed: • 0.0=immediate response • 0.5=response within 2 seconds • 1.0=response of 2-3 seconds • 1.5=response of >3 seconds • 2.0=no response

[4] = system: Critical Hind-Limb Ischemia Mouse Model; assay: In vivo assessment of limb function, mouse hind-limb ischemia
Method: Semi-quantitative assessment of impaired use of the ischemic limb was performed once a week post-surgery using the following scale, see Table 7.
Limb function was graded as “Not applicable” in case of partial or full limb amputation. In such case blood flow measurements was not included in the statistical analysis.

tMCAO rat-stroke model [5] = assay: Stepping test, tMCAO rat; format: in vivo; settings: groups 2M and 3M; from day 7 to day 28
Method: as §1, with “Belgium).” for “Belgium). Next a 4-0 silk suture was tied loosely around the mobilized ECA stump, and a 4 cm length of 4-0 monofilament nylon suture (the tip of the suture was blunted by using a flame, and the suture was coated with polylysine, prior to insertion) was inserted through the proximal ECA into the ICA and thence into the circle of Willis, effectively occluding the MCA.”
Animals were tested for forelimb akinesia using the stepping test. […] The number of adjusting steps were counted while the animal was moved sideways along the table surface (85 cm in approximately five seconds), in the forehand and backhand direction for both forelimbs.

[6] = day 7 (before treatment), group 2M, 10 mg/kg 3 times/week
[7] = day 7 (before treatment), group 3M, 30 mg/kg 3 times/week
[8] = day 7 (before treatment), group 4M, 30 mg/kg 1 time/week
[9] = day 35, group 2M, 10 mg/kg s.c. 3 times/week
[10] = day 35, group 3M, 30 mg/kg s.c. 3 times/week
[11] = day 35, group 4M, 30 mg/kg s.c. 1 time/week

Substance: Dextran sulfate
- SMA capillary density compared to vehicle control [1]: higher SMA capillary density; also recorded: trend of increase in capillaries density
- Mean change in blood flow from Day 0 to Day 28 ([2]; group 2M, 30 mg/kg s.c. 3 times a week starting on Day 8): 47.7%
- Mean change in blood flow from Day 0 to Day 28 ([2]; group 3M, 30 mg/kg (as printed in Table 12) s.c. 3 times a week starting on Day 8): 39.1%
- Mean change in blood flow from Day 0 to Day 28 ([2]; group 4M, 30 mg/kg s.c. administered once): 44.0%
- Mean change in blood flow from Day 0 to Day 28 ([2]; group 5M, 3 mg/kg s.c. administered once): 41.0%
- Ratio of blood flow HLI-injured versus non-injured leg, treated groups vs control ([2]; groups 2M, 3M, 4M and 5M vs 1M, Day 14 through Day 28): statistically significant differences
- Forelimb placement test compared to vehicle control (tMCAO rat-stroke model [3]; all treated rats, starting on day 14 up to day 28): statistically significant improvement
- Forelimb placement test, improvement in sensory motor deficits (tMCAO rat-stroke model [3]; group 3M (15 mg/kg daily), first testing on day 7): reached statistical significance
- Limb function score (0-3, 3 worst) ([4]; 10 or 30 mg/kg, 1x/w or 3x/w from day 8, from day 21 and onward, two-way ANOVA): significant improvement
- Incidence of mice with limb function score 0 [4, 6]: 0.0%
- Incidence of mice with limb function score 1 [4, 6]: 0.0%
- Incidence of mice with limb function score 2 [4, 6]: 21.4%
- Incidence of mice with limb function score 3 [4, 6]: 79.6%
- Incidence of mice with limb function score 0 [4, 7]: 0.0%
- Incidence of mice with limb function score 1 [4, 7]: 0.0%
- Incidence of mice with limb function score 2 [4, 7]: 21.4%
- Incidence of mice with limb function score 3 [4, 7]: 79.6%
- Incidence of mice with limb function score 0 [4, 8]: 0.0%
- Incidence of mice with limb function score 1 [4, 8]: 0.0%
- Incidence of mice with limb function score 2 [4, 8]: 7.1%
- Incidence of mice with limb function score 3 [4, 8]: 92.9%
- Incidence of mice with limb function score 0 [4, 9]: 50.0%
- Incidence of mice with limb function score 1 [4, 9]: 42.9%
- Incidence of mice with limb function score 2 [4, 9]: 7.1%
- Incidence of mice with limb function score 3 [4, 9]: 0.0%
- Incidence of mice with limb function score 0 [4, 10]: 72.4%
- Incidence of mice with limb function score 1 [4, 10]: 21.5%
- Incidence of mice with limb function score 2 [4, 10]: 7.1%
- Incidence of mice with limb function score 3 [4, 10]: 0.0%
- Incidence of mice with limb function score 0 [4, 11]: 69.2%
- Incidence of mice with limb function score 1 [4, 11]: 30.8%
- Incidence of mice with limb function score 2 [4, 11]: 0.0%
- Incidence of mice with limb function score 3 [4, 11]: 0.0%
- Stepping test, functional improvement compared to control (tMCAO rat-stroke model [5]): improvement reached statistical significance
